Test results taken from publication PMC6242839 (Nature Communications, 2018).
Converted amounts (≈) assume the structure as drawn.

Tests used:
[1] = system: B. anthracis Sterne strain; assay: microbe, parasite or virus in culture; format: cell-based; settings: Bacillus anthracis; 16 h at 37 °C; read-out: MIC B. anthracis Sterne
[2] = system: B. anthracis pathogenic strain (human isolate); assay: microbe, parasite or virus in culture; format: cell-based; settings: Bacillus anthracis; 16 h at 37 °C; read-out: MIC B. anthracis Pathogenic
[3] = system: B. anthracis ovine strain (animal isolate); assay: microbe, parasite or virus in culture; format: cell-based; settings: Bacillus anthracis; 16 h at 37 °C; read-out: MIC B. anthracis Ovine
[4] = system: E. faecalis (ATCC 29212); assay: microbe, parasite or virus in culture; format: cell-based; settings: Enterococcus faecalis, ATCC29212; 16 h at 37 °C; read-out: MIC E. faecalis
[5] = system: B. cereus (ATCC 10876); assay: microbe, parasite or virus in culture; format: cell-based; settings: Bacillus cereus, ATCC10876; 16 h at 37 °C; read-out: MIC B. cereus
[6] = system: B. cereus ATCC 14579; assay: microbe, parasite or virus in culture; format: cell-based, Bacillus cereus; settings: Bacillus cereus, ATCC14579
[7] = in vitro; settings: human
[8] = system: B. cereus ATCC 14579 strains resistant to known antibiotics; assay: microbe, parasite or virus in culture; format: cell-based, Bacillus cereus
[9] = system: Bacillus cereus ATCC 14579; settings: cited from earlier work
[10] = system: E. coli K12 spheroplasts; assay: microbe, parasite or virus in culture; format: cell-based, Escherichia coli
[11] = system: S. aureus ATCC 29213 protoplasts; assay: microbe, parasite or virus in culture; format: cell-based, Staphylococcus aureus

Compound | MIC [1] | MIC [2] | MIC [3] | MIC [4] | MIC [5] | MIC [9] | further results
CCCCCCCCCCCCO[C@H]1O[C@H](C)[C@@H](O)[C@H](O)[C@@H]1O [Compound 16] | 24 µM (≈ 7.98 µg/mL) | 24 µM (≈ 7.98 µg/mL) | > 48 µM | > 48 µM | 48 µM (≈ 16 µg/mL) |  | 
CCCCCCCCCCCCO[C@@H]1C[C@@H](O)[C@H](O)CO1 [Compound 17] | 26 µM (≈ 7.86 µg/mL) | 52 µM (≈ 15.7 µg/mL) | 52 µM (≈ 15.7 µg/mL) | > 52 µM | 52 µM (≈ 15.7 µg/mL) |  | MBC [6]: 0.016 mg/mL (≈ 52.9 µM); MIC [6]: 0.016 mg/mL (≈ 52.9 µM); IC50 at 24 h [7]: > 100 µM; IC50 at 48 h [7]: > 100 µM
CCCCCCCCCCCCO[C@H]1C[C@@H](O)[C@H](O)CO1 [Compound 18] | 26 µM (≈ 7.86 µg/mL) | 26 µM (≈ 7.86 µg/mL) | 52 µM (≈ 15.7 µg/mL) | 52 µM (≈ 15.7 µg/mL) | 52 µM (≈ 15.7 µg/mL) |  | IC50 at 24 h [7]: > 100 µM; IC50 at 48 h [7]: > 50 µM
CCCCCCCCCCCCS[C@@H]1C[C@@H](O)[C@H](O)CO1 [Compound 19] | 50 µM (≈ 15.9 µg/mL) | 25 µM (≈ 7.96 µg/mL) | 50 µM (≈ 15.9 µg/mL) | 50 µM (≈ 15.9 µg/mL) | 25 µM (≈ 7.96 µg/mL) |  | 
CCCCCCCCCCCCS[C@H]1C[C@@H](O)[C@H](O)CO1 [Compound 20] | 25 µM (≈ 7.96 µg/mL) | 50 µM (≈ 15.9 µg/mL) | 50 µM (≈ 15.9 µg/mL) | > 50 µM | 50 µM (≈ 15.9 µg/mL) |  | MBC [6]: 0.032 mg/mL (≈ 100 µM); MIC [6]: 0.032 mg/mL (≈ 100 µM)
CCCCCCCCCCCC[C@@H]1C[C@@H](O)[C@H](O)CO1 [Compound 21, 1-(2-Deoxy-α-D-threo-pentopyranosyl)dodecane] | 28 µM (≈ 8.02 µg/mL) | 28 µM (≈ 8.02 µg/mL) | 28 µM (≈ 8.02 µg/mL) | 56 µM (≈ 16 µg/mL) | 28 µM (≈ 8.02 µg/mL) |  | IC50 at 24 h [7]: > 100 µM; IC50 at 48 h [7]: 100 µM
CC[C@H]1OC(=O)[C@H](C)[C@@H](O[C@H]2C[C@@](C)(OC)[C@@H](O)[C@H](C)O2)[C@H](C)[C@@H](O[C@@H]2O[C@H](C)C[C@H](N(C)C)[C@H]2O)[C@](C)(O)C[C@@H](C)C(=O)[C@H](C)[C@@H](O)[C@]1(C)O [Erythromycin] |  |  |  |  |  | 0.008 mg/mL (≈ 10.9 µM) | MIC of the antibiotic [8]: 0.02 mg/mL
CNC(C)C1CCC(N)C(OC2C(N)CC(N)C(OC3OCC(C)(O)C(NC)C3O)C2O)O1 (centres unmarked) [Gentamicin] |  |  |  |  |  | 0.004 mg/mL (≈ 8.38 µM) | 
NC[C@H]1O[C@H](O[C@H]2[C@H](O)[C@@H](O[C@H]3O[C@H](CO)[C@@H](O)[C@H](N)[C@H]3O)[C@H](N)C[C@@H]2N)[C@H](O)[C@@H](O)[C@@H]1O [Kanamycin] |  |  |  |  |  | 0.015 mg/mL (≈ 31 µM) | 
CCn1cc(C(=O)O)c(=O)c2cc(F)c(N3CCNCC3)cc21 [Norfloxacin] |  |  |  |  |  | 0.00125 mg/mL (≈ 3.91 µM) | 
CO[C@H]1/C=C/O[C@@]2(C)Oc3c(C)c(O)c4c(O)c(c(/C=N/N5CCN(C)CC5)c(O)c4c3C2=O)NC(=O)/C(C)=C\C=C\[C@H](C)[C@H](O)[C@@H](C)[C@@H](O)[C@@H](C)[C@H](OC(C)=O)[C@@H]1C [Rifampicin] |  |  |  |  |  | 0.0005 mg/mL (≈ 0.608 µM) | 
CN(C)[C@@H]1C(O)=C(C(N)=O)C(=O)[C@@]2(O)C(O)=C3C(=O)c4c(O)cccc4[C@@](C)(O)[C@H]3C[C@@H]12 [Tetracycline] |  |  |  |  |  | 0.0025 mg/mL (≈ 5.63 µM) | MIC of the antibiotic [8]: 0.05 mg/mL
CN[C@H](CC(C)C)C(=O)N[C@H]1C(=O)N[C@@H](CC(N)=O)C(=O)N[C@H]2C(=O)N[C@H]3C(=O)N[C@H](C(=O)N[C@H](C(=O)O)c4cc(O)cc(O)c4-c4cc3ccc4O)[C@H](O)c3ccc(c(Cl)c3)Oc3cc2cc(c3O[C@@H]2O[C@H](CO)[C@@H](O)[C@H](O)[C@H]2O[C@H]2C[C@](C)(N)[C@H](O)[C@H](C)O2)Oc2ccc(cc2Cl)[C@H]1O [Vancomycin] |  |  |  |  |  | 0.00018 mg/mL (≈ 0.124 µM) | MIC of the antibiotic [8]: 0.005 mg/mL
Colistin |  |  |  |  |  | > 5 mg/mL | 
Daptomycin |  |  |  |  |  | 0.003125 mg/mL | 
Penicillin |  |  |  |  |  |  | MIC of the antibiotic [8]: 0.02 mg/mL
Polymyxin B [reference compound] |  |  |  |  |  | 0.781 mg/mL | MIC [10]: > 1000 mg/mL; MIC [11]: > 1000 mg/mL
